Where two headings read alike, the source gives them in different places.
Experiments:
platelet aggregation = experiment: Inhibition of platelet aggregation in rabbit platelet-rich plasma (Born's turbimetry); format: cell-based; settings: Oryctolagus cuniculus
Procedure: Using a syringe containing 3.8% sodium citrate solution (1 volume), 9 volumes of blood is drawn from the carotid artery of a rabbit. Said blood is centrifuged to give platelet-rich plasma (PRP: 7×10^5 /μl).
In a cuvette is placed 250 ul of said PRP, followed by incubation in a thermostat at 37° C. for 2 min. Then, 20 μl of physiological saline buffer solution of a 2,4-pentadienoic acid derivative to be tested is added, and the mixture is incubated for 3 min. A platelet-aggregation inducer, an arachidonic acid solution, a collagen solution or an ADP solution is then added, and platelet aggregation is measured by the Born's turbimetry (which is described, for example, in Journal of Physiology, vol. 168, p. 178 (1968)). 50% Inhibitory concentration of the platelet aggregation caused by arachidonic acid (60 μmol), collagen (10 μg/ml) or ADP (5 μmol) is shown in Table 5 in comparison with prostaglandin I2, aspirin or dipyridamol.
50% Inhibitory concentration as indicated in Table 5 means the concentration of a 2,4-pentadienoic acid derivative needed for inhibiting the platelet aggregation by 50% by the introduction of said 2,4-pentadienoic acid derivative, taking the platelet aggregation in the absence of 2,4-pentadienoic acid derivatives of the invention as 100%.

[1] = unstable vinylether group in the molecule; cited from earlier work
[2] = aggregation induced by ADP (5 μmol), rabbit PRP, 37° C., 3 min preincubation, read-out: Antiplatelet activity, 50% Inhibitory concentration, ADP
[3] = aggregation induced by arachidonic acid (60 μmol), rabbit PRP, 37° C., 3 min preincubation, read-out: Antiplatelet activity, 50% Inhibitory concentration, Arachidonic acid
[4] = aggregation induced by collagen (10 μg/ml), rabbit PRP, 37° C., 3 min preincubation, read-out: Antiplatelet activity, 50% Inhibitory concentration, Collagen

Structure (SMILES) | IC50 (platelet aggregation; [2]) [µM] | IC50 (platelet aggregation; [3]) [µM] | IC50 (platelet aggregation; [4]) [µM] | half life in the living body [1] | IC50 (platelet aggregation; read-out: Antiplatelet activity, 50% Inhibitory concentration, ADP) [µM] | IC50 (platelet aggregation; read-out: Antiplatelet activity, 50% Inhibitory concentration, Arachidonic acid) [µM] | IC50 (platelet aggregation; read-out: Antiplatelet activity, 50% Inhibitory concentration, Collagen) [µM]
OCCN(CCO)c1nc(N2CCCCC2)c2nc(N(CCO)CCO)nc(N3CCCCC3)c2n1 [dipyridamol, reference compound] | 470 | ≥ 1000 |  |  |  |  | 
CCCCC[C@H](O)/C=C/[C@@H]1[C@H]2CC(C/C=C/C=C/C(=O)O)=C[C@H]2C[C@H]1O [Example 6, 3-(5-carboxy-trans, trans-2,4-pentadienyl)-6-exo-(3α-hydroxy-trans-1-octenyl)-7-endo-hydroxybicyclo[3.3.0]oct-2-ene] | 0.7 | 0.82 | 0.5 |  |  |  | 
O=C(O)/C=C/C=C/CC1=C[C@H]2C[C@@H](O)[C@H](/C=C/[C@@H](O)C3CCCC3)[C@H]2C1 [Example 9] | 1.4 | 1.8 | 1.1 |  |  |  | 
CC(=O)Oc1ccccc1C(=O)O [aspirin, reference compound] |  |  |  |  | ≥ 1000 | 17 | 200

More lines, main results first:

IC50 (platelet aggregation; [2]) [µM] | IC50 (platelet aggregation; [3]) [µM] | IC50 (platelet aggregation; [4]) [µM] | Structure (SMILES) | half life in the living body [1] | IC50 (platelet aggregation; read-out: Antiplatelet activity, 50% Inhibitory concentration, ADP) [µM] | IC50 (platelet aggregation; read-out: Antiplatelet activity, 50% Inhibitory concentration, Arachidonic acid) [µM] | IC50 (platelet aggregation; read-out: Antiplatelet activity, 50% Inhibitory concentration, Collagen) [µM]
0.39 | 0.29 | 0.23 | O=C(O)/C=C/C=C/C1=C[C@H]2C[C@@H](O)[C@H](/C=C/[C@@H](O)C3CCCC3)[C@H]2C1 [Example 4] |  |  |  | 
0.38 | 0.25 | 0.22 | CCCCC[C@H](O)/C=C/[C@@H]1[C@H]2C/C(=C/CCCC(=O)O)O[C@H]2C[C@H]1O [prostaglandin I2, reference compound] | short |  |  | 
0.52 | 0.47 | 0.32 | CCCCC[C@H](O)/C=C/[C@@H]1[C@H]2CC(/C=C/C=C/C(=O)O)=C[C@H]2C[C@H]1O [Example 1, 3-(4-carboxy-trans, trans-1,3-butadienyl)-6-exo-(3α-hydroxy-trans-1-octenyl)-7-endo-hydroxybicyclo[3.3.0]oct-2-ene] |  |  |  | 

Source: patent US4764528A, “2,4-pentadienoic acid derivatives and platelet aggregation inhibitors containing the same” (Teruo Kabushiki Kaisha, priority 1986, dated 1988)
